Experimental data reported in patent US20150224164A1, “TREATMENT OF AUTISM SPECTRUM DISORDERS USING GLYCYL-L-2-METHYLPROLYL-L-GLUMATIC ACID” (Neuren Pharmaceuticals Limited, priority 2013, published 2015).
Where a SMILES comes first, the peptide text is derived from it.

Assays:
[1] = test system: neurons in the CA3 region of the hippocampus; test: Neuron soma size in hippocampus CA3 (Example 10); format: in vivo, mouse
Protocol: We also measure the effect of G-2-MePE treatment on neuron soma size in the hippocampus. Mice are treated with G-2-MePE as described above for locomotor activity.

MeCP2-/y mice [2] = test: Heart rate measurements (Example 10); format: in vivo, mouse; conditions: 8 weeks old, treated from P15
Protocol: Real time cardiac pulse rate is measured using a tail clip sensor (Mouse OX Oximeter—Oakmont, Pa.). Mice are not anesthetized but physically restrained in a fitted open plastic tube. Prior to the recording session the tube is placed overnight in the cages housing the experimental animals to allow habituation. Body temperature is maintained at ˜82-84° F. throughout the recording time. We record 3 trials of 15 minutes for each mouse, mice are 8 weeks old and treated with vehicle or G-2-MePE from P15.

gastrointestinal cells = conditions: cited from earlier work
[3] = test system: hippocampus slices from MeCP2 deficient mice; test: Hippocampal long-term potentiation, fEPSP slope (Example 8); format: in vivo, mouse; conditions: 20 mg/kg/day i.p. week 4 to 9; vs saline
Excerpt: MeCP2 deficient mice have been previously reported to suffer from functional and ultrastructural synaptic dysfunction, significant impairment of hippocampus-dependent memory and hippocampal long-term potentiation (LTP) (Moretti et al. The Journal of Neuroscience. 2006. 26(1):319-327). To test the effects of the G-2-MePE treatment on synaptic function in the RTT model we compared hippocampal LTP in both vehicle and G-2-MePE treated animals at 9 weeks of age. To do so, we measured the slope of the fEPSP as a % of baseline potential in neurons in slices of hippocampus from MeCP2 deficient mice treated with either saline or G-2-MePE (FIG. 23).

MeCP2 deficient mice = test: Survival after oral administration (Example 11); format: in vivo, mouse; conditions: 20 or 80 mg/kg daily
Protocol: Therefore, we administer G-2-MePE orally to MeCP2 deficient mice as described in US 2009/0074865. Briefly, an aqueous solution, a water-in-oil emulsion (micro-emulsion, coarse emulsion or liquid crystal), or a gel composition containing a pharmaceutically effective amount of G-2-MePE (20 or 80 mg/kg per animal) is administered daily. In control MeCP2 deficient animals, we administer saline only, and wild-type animals are used to obtain baseline data similar to the design of studies described in Example 8 above.

fmr1 knockout mice = test: Social behavior, bouts of sniffing, fmr1 knockout mice; format: in vivo, mouse; conditions: 100 mg/kg i.p. 28-day
Protocol: G-2-MePE was administered at the dose of 100 mg/kg i.p. in 0.1 ml saline, once daily for 28 days. Vehicle-treated animals were injected with 0.1 ml saline daily for 28 days. Thereafter, drug or vehicle treatments were stopped and animals were tested on successive days until all tests were completed. Finally, the animals were sacrificed for determining expression of pAkt and pERK Mice are a social species, which engage in easily scored social behaviors including approaching, following, sniffing, allogrooming, aggressive encounters, sexual interactions, parental behaviors, nesting and sleeping in a group huddle. In the present studies, social recognition and social memory in mice were evaluated by assessing the amount of time spent sniffing a novel mouse upon repeated exposures, to induce familiarity, and reinstatement of high levels of sniffing when a novel stimulus animal is introduced.

[4] = test system: hippocampal CA1 neurons of mecp2 null mutant mice; test: Dendritic arborization and spine analysis, Golgi staining (Example 9); format: in vivo, mouse
Protocol: We assess the effects of G-2-MePE treatment on dendrites. Transgenic mecp2 knockout mice (n=15 to 20) were administered G-2-MePE intraperitoneally at a dose of 20 mg/kg once daily. Following sacrifice dendritic spine density, spine length and aborization were examined after Golgi staining after nine weeks, as per the Table 1 below:
Dendritic length was assessed by distance from the soma of representative hippocampal CA1 neurons from 9 week old male mecp2 null mutant mice treated with either saline (3 neurons analysed from 3 separate mice, n=9) or G-2-MePE (20 mg/kg i.p. 1/day, from week 4; 3 neurons analysed from 3 separate mice, n=9).

MeCP2-/y mice [5] = test: Life span (Example 10); format: in vivo, mouse; conditions: 20 mg/kg i.p. daily from P15; vs MeCP2 KO littermates
Protocol: For the survival measurements, the nocturnal activity analysis and the immunoblot analysis, G-2-MePE (synthesised Albany Molecular Research Inc. (Albany, N.Y.) and supplied by Neuren Pharmaceuticals Limited) is administered daily via intra-peritoneal injections (20 mg/kg, vehicle=saline, 0.01% BSA). The treatment starts at P15 and is maintained throughout the course of the experiments. For intracellular physiology experiments, the mice are injected daily with G-2-MePE (20 mg/kg body weight, vehicle=saline, 0.01% BSA) for 2 weeks, from P15 to P28-P32 when they are used for acute slice preparation. For optical imaging experiments, mice are injected with G-2-MePE (20 mg/kg body weight, vehicle=saline, 0.01% BSA) daily from the day of the lid suture to the day of imaging.

For C[C@@]1(C(=O)N[C@@H](CCC(=O)O)C(=O)O)CCCN1C(=O)CN [Example G-2-MePE, Glycyl-L-2-methylprolyl-L-glutamic acid] (HELM PEPTIDE1{G.[C[C@@]1(C(=O)[*:2])CCCN1[*:1]].E}$$$$V2.0), the average soma size ([1]; KO animals) was “increases average soma size”, the soma size ([1]; wild type animals) was “little or no effect” and the “occurrence of irregular, lower heart rate” value (MeCP2-/y mice [2]) was “significantly reduced”. The “degradation by gastrointestinal cells” value (gastrointestinal cells) was “not degraded”, the “uptake by gastrointestinal cells” value (gastrointestinal cells) was “taken up” and the “slope of fEPSP (LTP)” value [3] was “increased the slope”. The survival (MeCP2 deficient mice) was “survival is increased substantially”, the “heightened sniffing of the presented mouse” value (fmr1 knockout mice; fmr1 KO) was “nullified” and the sniffing (fmr1 knockout mice; wild-type group) was “no significant effect”. For the same compound, the “dendritic length by distance from the soma” value ([4]; 20 mg/kg i.p. 1/day from week 4, vs saline) was “produced longer dendrites”, the “dendritic arborization and dendritic spine length” value ([4]; 20 mg/kg i.p. once daily, 9 week old mice) was “improved dendritic arborization and increased dendritic spine length” and the “increase in life expectancy (0.5 probability survival rate)” value (MeCP2-/y mice [5]) was about 50%.
